{
  "source": "patent US20180161314A1",
  "about": "“Methods for Treating Hyperuricemia and Related Diseases” (Ardea Biosciences, Inc., priority 2010, published 2018)",
  "test_system": "healthy adult subjects",
  "test": "Drug 1 / febuxostat cross-over interaction study in healthy adult subjects (Examples 10-12)",
  "type": "in vivo, human",
  "conditions": "for % serum uric acid change, Mean: drug 1 200 mg qd, febuxostat 40 mg qd",
  "text": "Study Objectives • To compare the multiple-dose pharmacokinetics of febuxostat in the absence versus presence of drug 1 co-administration. • To compare the multiple-dose pharmacokinetics of drug 1 in the absence versus presence of febuxostat co-administration. • To measure the effects of drug 1 and febuxostat, both alone and in combination, on serum uric acid concentrations and amounts of urate excreted into urine. • To evaluate the safety and tolerability of multiple-doses of drug 1 and febuxostat, both alone or in combination.\nThe study is a two or three-panel, placebo-controlled (for drug 1), double-blinded (for drug 1 and matched placebo), randomized, cross-over study with up to 54 healthy adult subjects. Each panel consisting of 18 subjects is sequentially enrolled, starting with Panel 1 (200 mg once daily dose of drug 1 or placebo), followed by Panel 2 (400 mg once daily dose of drug 1 or placebo), and followed by optional Panel 3 (100 mg to 600 mg once daily dose of drug 1 or placebo). The placebo control is included in this study to better assess safety and tolerability and the serum urate lowering effect of drug 1 in combination with febuxostat. Serum urate levels may be influenced by frequent blood draws and meal contents; therefore, the true effect on serum urate levels can be determined by correcting for placebo (subtract serum urate effect in placebo subjects from serum urate effect in active subjects).\nSubjects in each panel are randomly assigned to one of two treatment sequences (Sequence A or B) after all Baseline (Day −1) procedures have been completed. Each treatment sequence within a panel consists of 9 subjects randomly assigned to receive drug 1 (6 of 9 subjects) or matching placebo (3 of 9 subjects) in a double-blinded fashion. For each treatment sequence, single-agent drug treatment is administered on Days 1 to 7 (either open-label febuxostat or double-blinded drug 1 or matched placebo by random assignment), followed by combination treatment on Days 8 to 14, and completing with the alternative single-agent drug treatment on Days 15 to 21, as follows (Panel 1 shown in FIG. 2):\nSequence A: Days 1-7: Febuxostat, 40 mg (once daily) • Days 8 to 14: drug 1, 200 mg or placebo in combination with febuxostat (once daily) • Days 15-21: drug 1, 200 mg, or placebo (once daily) Sequence B: Days 1-7: drug 1, 200 mg, or placebo (once daily) • Days 8 to 14: drug 1, 200 mg or placebo in combination with febuxostat (once daily) • Days 15-21: Febuxostat, 40 mg (once daily) […]\nSerial blood samples for PK and PD assessments are collected up to 24 hours after dosing on Days 7, 14, and 21. Urine (total catch) for assays of drug 1, creatinine, and uric acid are collected starting on Day −1 (pre-treatment baseline) and after dosing on Days 7, 14, and 21. Final safety assessments are completed when subjects return to the clinic at 7±1 days after discharge from the clinic on Day 22 (Follow-Up visit on Day 29). The total volume of blood collected from each subject is approximately 518 mL.\nScreening procedures to determine subject eligibility are performed 28 days before the first dose of study drug (Day 1). A total of up to 54 subjects enrolled in up to 3 panels consisting of 2 sequences each, with 9 subjects per sequence (18 subjects per panel). Subjects withdrawing after dosing are not replaced.\nSubjects in Panel 1 receive a 200 mg dose of drug 1 or placebo once daily for 14 days and a 40 mg dose of febuxostat once daily for 14 days. Subjects in Panel 2 receive a 400 mg dose of drug 1 or placebo once daily for 14 days and a 40 mg dose of febuxostat once daily for 14 days. Subjects in Panel 3 receive a 100-600 mg dose of drug 1 or placebo once daily for 14 days and a 40 mg dose of febuxostat once daily for 14 days.\nSubjects in Sequence A begin dosing on Day 1 with febuxostat and take their first dose of drug 1 or placebo on Day 8. […]",
  "key": {"[1]": {"conditions": "Week 1, Drug 1 200 mg alone, febuxostat 40 mg alone"}, "[2]": {"conditions": "Week 3, Drug 1 200 mg alone, febuxostat 40 mg alone"}},
  "data": [
    {"smiles": "O=C(O)CSc1nnc(Br)n1-c1ccc(C2CC2)c2ccccc12", "note": "[Drug 1, Sodium 2-(5-bromo-4-(4-cyclopropylnaphthalen-1-yl)-4H-1,2,4-triazol-3-ylthio)acetate]", "values": [
      {"measurement": "serum uric acid change from baseline, daily", "setting": "Day 1, Drug 1 200 mg, FBX 40 mg", "value": "−7.4", "unit": "%"},
      {"measurement": "serum uric acid change from baseline, daily", "setting": "Day 1, Drug 1 400 mg", "value": "−5.5", "unit": "%"},
      {"measurement": "% serum uric acid change, Mean", "setting": "Day 1", "value": "−14.8", "unit": "%"},
      {"measurement": "serum uric acid change from baseline, daily", "setting": "Day 2, Drug 1 200 mg, FBX 40 mg", "value": "−22.3", "unit": "%"},
      {"measurement": "serum uric acid change from baseline, daily", "setting": "Day 2, Drug 1 400 mg", "value": "−28.9", "unit": "%"},
      {"measurement": "% serum uric acid change, Mean", "setting": "Day 2", "value": "−26.3", "unit": "%"},
      {"measurement": "serum uric acid change from baseline, daily", "setting": "Day 3, Drug 1 200 mg, FBX 40 mg", "value": "−32.4", "unit": "%"},
      {"measurement": "serum uric acid change from baseline, daily", "setting": "Day 3, Drug 1 400 mg", "value": "−33.3", "unit": "%"},
      {"measurement": "% serum uric acid change, Mean", "setting": "Day 3", "value": "−34.7", "unit": "%"},
      {"measurement": "serum uric acid change from baseline, daily", "setting": "Day 4, Drug 1 200 mg, FBX 40 mg", "value": "−37.7", "unit": "%"},
      {"measurement": "serum uric acid change from baseline, daily", "setting": "Day 4, Drug 1 400 mg", "value": "−36.2", "unit": "%"},
      {"measurement": "% serum uric acid change, Mean", "setting": "Day 4", "value": "−31.6", "unit": "%"},
      {"measurement": "serum uric acid change from baseline, daily", "setting": "Day 5, Drug 1 200 mg, FBX 40 mg", "value": "−36", "unit": "%"},
      {"measurement": "serum uric acid change from baseline, daily", "setting": "Day 5, Drug 1 400 mg", "value": "−37.3", "unit": "%"},
      {"measurement": "% serum uric acid change, Mean", "setting": "Day 5", "value": "−31.3", "unit": "%"},
      {"measurement": "serum uric acid change from baseline, daily", "setting": "Day 6, Drug 1 200 mg, FBX 40 mg", "value": "−39.1", "unit": "%"},
      {"measurement": "serum uric acid change from baseline, daily", "setting": "Day 6, Drug 1 400 mg", "value": "−45.6", "unit": "%"},
      {"measurement": "% serum uric acid change, Mean", "setting": "Day 6", "value": "−36.2", "unit": "%"},
      {"measurement": "serum uric acid change from baseline, daily", "setting": "Day 7, Drug 1 200 mg, FBX 40 mg", "value": "−41.2", "unit": "%"},
      {"measurement": "serum uric acid change from baseline, daily", "setting": "Day 7, Drug 1 400 mg", "value": "−48.8", "unit": "%"},
      {"measurement": "% serum uric acid change, Mean", "setting": "Day 7", "value": "−40.7", "unit": "%"},
      {"measurement": "serum uric acid change from baseline, daily", "setting": "Day 8, Drug 1 200 mg, FBX 40 mg, alone or combined as labelled", "value": "−38.9", "unit": "%"},
      {"measurement": "serum uric acid change from baseline, daily", "setting": "Day 8, Drug 1 400 mg, alone or + FBX 40 mg as labelled", "value": "−42.5", "unit": "%"},
      {"measurement": "% serum uric acid change, Mean", "setting": "Day 8", "value": "−37.6", "unit": "%"},
      {"measurement": "serum uric acid change from baseline, daily", "setting": "Day 15, Drug 1 200 mg, FBX 40 mg, alone or combined as labelled", "value": "−54.8", "unit": "%"},
      {"measurement": "serum uric acid change from baseline, daily", "setting": "Day 15, Drug 1 400 mg, alone or + FBX 40 mg as labelled", "value": "−68.1", "unit": "%"},
      {"measurement": "serum uric acid change from baseline, daily", "setting": "Day 16, Drug 1 200 mg alone (week 3), FBX 40 mg alone", "value": "−42.5", "unit": "%"},
      {"measurement": "serum uric acid change from baseline, daily", "setting": "Day 16, Drug 1 400 mg alone (week 3)", "value": "−53.4", "unit": "%"},
      {"measurement": "serum uric acid change from baseline, daily", "setting": "Day 17, Drug 1 200 mg alone (week 3), FBX 40 mg alone", "value": "−37.5", "unit": "%"},
      {"measurement": "serum uric acid change from baseline, daily", "setting": "Day 17, Drug 1 400 mg alone (week 3)", "value": "−44.8", "unit": "%"},
      {"measurement": "serum uric acid change from baseline, daily", "setting": "Day 18, Drug 1 200 mg alone (week 3), FBX 40 mg alone", "value": "−32.8", "unit": "%"},
      {"measurement": "serum uric acid change from baseline, daily", "setting": "Day 18, Drug 1 400 mg alone (week 3)", "value": "−40.7", "unit": "%"},
      {"measurement": "serum uric acid change from baseline, daily", "setting": "Day 19, Drug 1 200 mg alone (week 3), FBX 40 mg alone", "value": "−25.9", "unit": "%"},
      {"measurement": "serum uric acid change from baseline, daily", "setting": "Day 19, Drug 1 400 mg alone (week 3)", "value": "−33.8", "unit": "%"},
      {"measurement": "serum uric acid change from baseline, daily", "setting": "Day 20, Drug 1 200 mg alone (week 3), FBX 40 mg alone", "value": "−33", "unit": "%"},
      {"measurement": "serum uric acid change from baseline, daily", "setting": "Day 20, Drug 1 400 mg alone (week 3)", "value": "−40", "unit": "%"},
      {"measurement": "serum uric acid change from baseline, daily", "setting": "Day 21, Drug 1 200 mg alone (week 3), FBX 40 mg alone", "value": "−32.4", "unit": "%"},
      {"measurement": "serum uric acid change from baseline, daily", "setting": "Day 21, Drug 1 400 mg alone (week 3)", "value": "−46.4", "unit": "%"},
      {"measurement": "serum uric acid change from baseline, daily", "setting": "Day 22, Drug 1 200 mg alone (week 3), FBX 40 mg alone", "value": "−32.8", "unit": "%"},
      {"measurement": "serum uric acid change from baseline, daily", "setting": "Day 22, Drug 1 400 mg alone (week 3)", "value": "−41.3", "unit": "%"},
      {"measurement": "Absolute sUA reduction from baseline, Intraday peak", "setting": "[1]", "value": -3.1, "unit": "mg/dL"},
      {"measurement": "Absolute sUA reduction from baseline, Trough", "setting": "[1]", "value": -2.4, "unit": "mg/dL"},
      {"measurement": "Percent sUA reduction from baseline, Intraday peak", "setting": "[1]", "value": "−50.4", "unit": "%"},
      {"measurement": "Percent sUA reduction from baseline, Trough", "setting": "[1]", "value": "−39.7", "unit": "%"},
      {"measurement": "Absolute sUA reduction from baseline, Intraday peak", "setting": "Week 1, Drug 1 400 mg alone", "value": -4.2, "unit": "mg/dL"},
      {"measurement": "Absolute sUA reduction from baseline, Trough", "setting": "Week 1, Drug 1 400 mg alone", "value": -3.4, "unit": "mg/dL"},
      {"measurement": "Percent sUA reduction from baseline, Intraday peak", "setting": "Week 1, Drug 1 400 mg alone", "value": "−60.7", "unit": "%"},
      {"measurement": "Percent sUA reduction from baseline, Trough", "setting": "Week 1, Drug 1 400 mg alone", "value": "−48.5", "unit": "%"},
      {"measurement": "Absolute sUA reduction from baseline, Intraday peak", "setting": "[2]", "value": -2.8, "unit": "mg/dL"},
      {"measurement": "Absolute sUA reduction from baseline, Trough", "setting": "[2]", "value": -2.0, "unit": "mg/dL"},
      {"measurement": "Percent sUA reduction from baseline, Intraday peak", "setting": "[2]", "value": "−48.5", "unit": "%"},
      {"measurement": "Percent sUA reduction from baseline, Trough", "setting": "[2]", "value": "−34.7", "unit": "%"},
      {"measurement": "Absolute sUA reduction from baseline, Intraday peak", "setting": "Week 3, Drug 1 400 mg alone", "value": -3.6, "unit": "mg/dL"},
      {"measurement": "Absolute sUA reduction from baseline, Trough", "setting": "Week 3, Drug 1 400 mg alone", "value": -2.9, "unit": "mg/dL"},
      {"measurement": "Percent sUA reduction from baseline, Intraday peak", "setting": "Week 3, Drug 1 400 mg alone", "value": "−56.9", "unit": "%"},
      {"measurement": "Percent sUA reduction from baseline, Trough", "setting": "Week 3, Drug 1 400 mg alone", "value": "−45.5", "unit": "%"}
    ]}
  ]
}
